Test results reported in paper PMC10196870, “Structural insights into the substrate recognition of serine palmitoyltransferase from Sphingobacterium multivorum” (The Journal of Biological Chemistry, 2023).
Entries after “also recorded” stand apart in the source; their conditions may differ. Marks after values point to notes of the source that are not given here.

Assays:
[1] = target: T1, Sphingobacterium multivorum SPT (Sphingobacterium multivorum, UniProt A7BFV6); assay: Steady-state kinetic analysis of SPT (LCB production from amino acid and PalCoA, quantified by TLC fluorescence); type: biochemical; settings: 1 mM PalCoA; for Kmapp / kcatapp: mean ± SD
T1 construct: harboring the plasmid that express the full length of S. multivorum SPT; made in house; host or cells: Escherichia coli BL21 (DE3) pLysS
T1 sequence (A7BFV6 whole entry): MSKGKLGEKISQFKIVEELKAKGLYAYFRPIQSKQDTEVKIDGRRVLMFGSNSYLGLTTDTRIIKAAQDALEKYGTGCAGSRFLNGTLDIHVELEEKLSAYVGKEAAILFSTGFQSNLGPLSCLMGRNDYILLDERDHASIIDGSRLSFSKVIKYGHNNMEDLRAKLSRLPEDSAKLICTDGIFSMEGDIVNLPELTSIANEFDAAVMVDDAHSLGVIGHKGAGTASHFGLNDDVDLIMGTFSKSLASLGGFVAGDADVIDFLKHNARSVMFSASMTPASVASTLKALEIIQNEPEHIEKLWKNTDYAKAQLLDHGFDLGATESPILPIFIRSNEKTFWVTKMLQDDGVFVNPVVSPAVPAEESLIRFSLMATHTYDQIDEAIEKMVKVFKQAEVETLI
Procedure: The assay was performed as follows; 200 mM of amino acid (glycine, L-Ala, L-Ser, L-Hse, or L-Thr) was incubated with 1 mM PalCoA and 100 μM SPT in 100 μl of 100 mM potassium phosphate, pH 7.5, for 60 min at 37 °C. The reactions were terminated by addition of the equal volume of 2 N ammonia. Lipids were extracted by successive addition and mixing of 750 μl of chloroform/methanol (1:2, v/v), 250 μl of chloroform, and 250 μl of 1% KCl. Phases were separated by centrifugation, and the organic phase was recovered. The aqueous phase was reextracted with 200 μl of chloroform, and, after centrifugation, the organic phase was combined with the organic phase from the first extraction. The organic phase was washed with water/chloroform/methanol (47:48:3, v/v), dried, and suspended in chloroform/methanol (2:1, v/v). The extracted lipids were resolved by normal-phase TLC on Silica Gel 60 high-performance TLC plates (Merck) with chloroform/methanol/2 N ammonia (40:10:1, v/v) or chloroform/methanol/triethanol amine (95:5:10, v/v) and visualized by spraying with ninhydrin reagent followed by gentle heating. For the quantitative analysis, the UV-fluorescence intensities of the reaction products on TLC plates were visualized by a Fusion chemiluminescence imaging system using a UV-light box and analyzed by a FUSION Capt software (VILBER; https://www.garvan.org.au/research/capabilities/molecular-genetics/ documents/fusion_manual_2016.pdf).
Steady-state kinetic parameters were determined by varying the concentrations of the amino acid substrate in the presence of 1 mM PalCoA in 100 μl of 100 mM potassium phosphate, pH 7.5, at 37 °C. The concentration of SPT and the incubation time were 1 μM and 10 min for L-Ser; 5 μM and 10 min for L-Hse; 20 μM and 30 min for L-Ala; and 100 μM and 120 min for Gly. The reaction termination, lipid extraction, TLC analysis, and quantification of the reaction products on TLC plates were described above. The apparent velocities (min^–1) versus amino acid concentrations (mM) plots were fitted to the Michaelis–Menten equation, v = Vmax[S]/(Km+[S]), by nonlinear regression using the Igor Pro 6.37 (https://www.wavemetrics.com/forum/news-and-announcements/igor-pro-637-released). software (Wave Matrix Inc.) to determine the apparent kinetic parameters, kcatapp and Kmapp , of SPT for each amino acid substrate.
The reactions were carried out in the presence of 1 mM PalCoA as described in Experimental procedures. Apparent rate constants, obtained by dividing the rate of the LCB production by the concentration of the enzyme, were plotted against concentrations of amino acid substrate, L-Ser (A), L-Hse (B), L-Ala (C), or glycine (D). The plots were fitted to the equation of the Michaelis–Menten mechanism, v = Vmax[S]/(Km+[S]), by nonlinear regression using the software Igor Pro (ver 6.37, WaveMetrics, Lake Oswego, OR), and the Kmappand kcatapp of SPT for each amino acid substrate were calculated. Solid line represents a theoretical curve based on the above equation. Each data point is a mean with the error bar showing standard deviation from at least three independent experiments.

[2] = target: T1, Sphingobacterium multivorum SPT; assay: Spectroscopic titration of SPT with amino acids (dissociation constants, external aldimine formation); type: binding; settings: 10 μM SPT, pH 7.5, 25 °C
Procedure: Next, binding of the amino acids to the S. multivorum SPT was examined by spectroscopic titration.
Figure 3 Spectroscopic analysis of the reaction of the Sphingobacterium multivorum SPT with L-Ala or L-Thr.A, the UV/vis absorption spectra of SPT (10 μM) in the presence of 800 mM L-Ala were measured at time intervals of 10 min for 500 min. Each line numbered 1 to 12 corresponds to the spectrum at 0, 10, 20, 30, 40, 50, 60, 80, 90, 110, 150, and 500 min, respectively, after SPT was mixed with L-Ala. […] B, spectroscopic titration of SPT with L-Ala. Absorbance at 420 nm in the presence of 0, 50, 100, 200, 400, and 600 mM L-Ala at 0 min was measured, and apparent molar absorptivities at 420 nm were plotted against L-Ala concentrations. […] C, absorption spectra of SPT (10 μM) in the presence of 0, 1.3, 3.7, 7.4, 12.2, 18.1, 24.9, 32.7, 41.3, and 51.6 mM L-Thr (lines 1–10, respectively). […] SPT, serine palmitoyltransferase.
The titration assay was carried out by using 10 μM SPT in 100 mM potassium phosphate and 0.1 mM EDTA, pH 7.5, at 25 °C. The changes of the 422 nm absorption intensities of SPT upon addition of amino acids were plotted against the final concentrations of the amino acids, and the Kd values were calculated by fitting to a hyperbolic saturation curve using Igor Pro 6.37. software. UV/vis spectra of SPT were recorded with a Hitachi U-3310 spectrophotometer.

[3] = target: T1, Sphingobacterium multivorum SPT; assay: TLC analysis of LCB formation from amino acids by SPT (ninhydrin); type: biochemical; settings: 200 mM amino acid, 1 mM PalCoA, 100 μM SPT, pH 7.5, 60 min, 37 °C
From the text: Reaction products were extracted with solvents and separated by TLC. […] Each LCB product was quantified by the fluorescence intensity based on the standard curve obtained by using the corresponding authentic compound.

[4] = target: T1, Sphingobacterium multivorum SPT; assay: UV/vis time course of conversion of PLP and L-Ala to PMP and pyruvate by SPT (abortive transamination); type: biochemical
Procedure: Next, binding of the amino acids to the S. multivorum SPT was examined by spectroscopic titration. […] Therefore, the absorption at 420 nm just after SPT was mixed with L-Ala was measured and plotted against concentrations of L-Ala (Fig. 3B), and the Kd value for L-Ala was estimated as 65 ± 10 mM (Table 1). For the other amino acids, only spectral changes corresponding to the external aldimine formation between PLP and the amino acids were observed, and side reactions such as PMP formation were not detected.
Figure 3 Spectroscopic analysis of the reaction of the Sphingobacterium multivorum SPT with L-Ala or L-Thr.A, the UV/vis absorption spectra of SPT (10 μM) in the presence of 800 mM L-Ala were measured at time intervals of 10 min for 500 min. Each line numbered 1 to 12 corresponds to the spectrum at 0, 10, 20, 30, 40, 50, 60, 80, 90, 110, 150, and 500 min, respectively, after SPT was mixed with L-Ala. […] The lines represent theoretical fits to a single-exponential equation ( y=A×e^−k⋅t ), where k is 0.029 ± 0.00024 min^–1. B, spectroscopic titration of SPT with L-Ala. Absorbance at 420 nm in the presence of 0, 50, 100, 200, 400, and 600 mM L-Ala at 0 min was measured, and apparent molar absorptivities at 420 nm were plotted against L-Ala concentrations. […]

[5] = 100 mM potassium phosphate, 0.1 mM EDTA, absorption at 422 nm, mean ± SD
[6] = 100 mM potassium phosphate pH 7.5, 37 °C
[7] = reaction mixture supplemented with 0.1 mM PLP, pH 7.5, 37 °C

C[C@@H](O)[C@H](N)C(=O)O [L-Thr, L-threonine]
Kmapp, fold larger than that for L-Ser [1]: 23 fold | Kd [2, 5]: 8.2 ± 1 mM | LCB formation (reaction product on TLC) [3]: not detected; also recorded: nonproductive ligand

NCC(=O)O [Gly, glycine]
Kmapp, fold larger than that for L-Ser [1]: 21 fold | kcatapp, fold smaller than that for L-Ser [1]: 36,000 fold | Kmapp [1, 6]: 77 ± 8.1 mM | kcatapp [1, 6]: 0.008 ± 0.002 min^–1 | kcatapp/Kmapp (apparent catalytic efficiency) ([1]; pH 7.5, 37 °C): 0.0001 min^–1 mM^–1 | Kd [2, 5]: 71 ± 5.5 mM | LCB formation (reaction product on TLC) [3]: converted to corresponding LCBs

N[C@@H](CO)C(=O)O [L-Ser, L-serine]
Kmapp [1, 6]: 3.6 ± 0.87 mM | kcatapp [1, 6]: 13 ± 1.0 min^–1 | kcatapp/Kmapp (apparent catalytic efficiency) ([1]; pH 7.5, 37 °C): 3.6 min^–1 mM^–1 | Kd [2, 5]: 0.45 ± 0.05 mM

C[C@H](N)C(=O)O [L-Ala, L-alanine]
kcatapp/Kmapp (apparent catalytic efficiency) ([1]; pH 7.5, 37 °C): 0.0037 min^–1 mM^–1 | Kmapp [1, 7]: 110 ± 9.0 ^c mM | kcatapp [1, 7]: 0.42 ± 0.011 ^c min^–1 | Kd ([2]; absorption intensity at 424 nm immediately after SPT was mixed with L-Ala (text: 420 nm)): 65 ± 10 mM | LCB formation (reaction product on TLC) [3]: converted to corresponding LCBs | half-life τ1/2 of conversion of PLP and L-Ala to PMP and pyruvate ([4]; SPT (10 μM) incubated with 800 mM L-Ala): 24.0 ± 0.2 min | rate constant k of single-exponential change in absorption at 420 nm and 328 nm ([4]; SPT (10 μM), 800 mM L-Ala): 0.029 ± 0.00024 min^–1

NC(CO)(CO)CO [Tris, tris(hydroxymethyl)aminomethane]
Kd [2, 5]: 40 ± 5.6 mM

N[C@@H](CCO)C(=O)O [L-Hse, L-homoserine]
Kmapp [1, 6]: 82 ± 14 mM | kcatapp [1, 6]: 4.5 ± 0.28 min^–1 | kcatapp/Kmapp (apparent catalytic efficiency) ([1]; pH 7.5, 37 °C): 0.055 min^–1 mM^–1 | Kd [2, 5]: 3.6 ± 0.2 mM | LCB formation (reaction product on TLC) [3]: converted to corresponding LCBs
